Laboratory results reported in patent US5770599A, “Quinazoline derivatives” (Zeneca Limited, priority 1995, dated 1998).
Where two headings read alike, the source gives them in different places.

Tests used:
[1] = target: T1, EGF receptor tyrosine kinase (Homo sapiens, UniProt P00533); experiment: Test (a): in vitro assay of inhibition of the enzyme EGF receptor tyrosine kinase (32P peptide phosphorylation); assay type: biochemical
T1 construct: Receptor tyrosine kinase was obtained in partially purified form from A-431 cells; endogenous in cells; host or cells: A-431 cells (human vulval carcinoma); solubilised membrane fraction
Experimental: (a) An in vitro assay which-determines the ability of a test compound to inhibit the enzyme EGF receptor tyrosine kinase.
A-431 cells were grown to confluence using Dulbecco's modified Eagle's medium (DMEM) containing 5% fetal calf serum (FCS). […] The homogenate was centrifuged at 400 g for 10 minutes at 0°-4° C. The supernatant was centrifuged at 25,000 g for 30 minutes at 0°-4° C. The pelleted material was suspended in 30 mM Hepes buffer at pH 7.4 containing 5% glycerol, 4 mM benzamidine and 1% Triton X-100, stirred for 1 hour at 0°-4° C., and recentrifuged at 100,000 g for 1 hour at 0°-4° C. The supernatant, containing solubilised receptor tyrosine kinase, was stored in liquid nitrogen.
There was thus obtained the test enzyme solution.
Equal volumes of this solution and a solution of epidermal growth factor (EGF; 20 μg/ml) were mixed.
[γ-^32 P]ATP (3000 Ci/mM, 250 μCi) was diluted to a volume of 2 ml by the addition of a solution of ATP (100 μM) in distilled water. An equal volume of a 4 mg/ml solution of the peptide […]in a mixture of 40 mM Hepes buffer at pH 7.4, 0.1% Triton X-100 and 10% glycerol was added.
The test compound/EGF mixture solution (5 μl) was added to the test enzyme solution (10 μl) and the mixture was incubated at 0°-4° C. for 30 minutes. The ATP/peptide mixture (10 μl) was added and the mixture was incubated at 25° C. for 10 minutes. The phosphorylation reaction was terminated by the addition of 5% trichloroacetic acid (40 μl ) and bovine serum albumin (BSA; 1 mg/ml, 5 μl). The mixture was allowed to stand at 4° C. for 30 minutes and then centrifuged. An aliquot (40 μl) of the supernatant was placed onto a strip of Whatman p 81 phosphocellulose paper. The strip was washed in 75 mM phosphoric acid (4×10 ml) and blotted dry. Radioactivity present in the filter paper was measured using a liquid scintillation counter (Sequence A). The reaction sequence was repeated in the absence of the EGF (Sequence B) and again in the absence of the test compound (Sequence C).

[2] = tested on: human naso-pharyngeal cancer cell line KB; experiment: cells; assay type: cell-based; conditions: 72 h, values stated as approximate, EGF 10 ng/ml, 3 days, read-out: Test (b) IC50
Experimental: (b) An in vitro assay which determines the ability of a test compound to inhibit the EGF-stimulated growth of the human naso-pharyngeal cancer cell line KB.
Cell growth was determined after incubation for 3 days by the extent of metabolism of MTT tetrazolium dye to furnish a bluish colour. Cell growth was then determined in the presence of EGF (10 ng/ml) or in the presence of EGF (10 ng/ml) and a test compound at a range of concentrations. An IC50 value could then be calculated.

[3] = tested on: EGF receptor tyrosine kinase; conditions: Fry et al., Science, 1994, 265, 1093; cited from earlier work
[4] = tested on: human vulval epidermoid carcinoma cell line A-431; experiment: Test (c): in vivo inhibition of growth of A-431 xenografts in athymic nude mice; parameters: species or system human (xenograft in athymic nude mice); conditions: Mus musculus, A-431, 312 h; usually oral, once daily, 13 days; approximately
Experimental: (c) An in-vivo assay in a group of athymic nude mice (strain ONU:Alpk) which determines the ability of a test compound (usually administered orally as a ball-milled suspension in 0.5% polysorbate) to inhibit the growth of xenografts of the human vulval epidermoid carcinoma cell line A-431.
A-431 cells were maintained in culture in DMEM supplemented with 5% FCS and 2 mM glutamine. Freshly cultured cells were harvested by trypsinization and injected subcutaneously (10 million cells/0.1 ml/mouse) into both flanks of a number of donor nude mice. When sufficient tumour material was available (after approximately 9 to 14 days), fragments of tumour tissue were transplanted in the flanks of recipient nude mice (test day 0). Generally, on the seventh day after transplantation (test day 7) groups of 7 to 10 mice with similar-sized tumours were selected and dosing of the test compound was commenced. Once daily dosing of test compound was continued for a total of 13 days (test days 7 to 19 inclusive). In some studies the dosing of the test compound was continued beyond test day 19, for example to test day 26. In each case, on the following test day the animals were killed and the final tumour volume was calculated from measurements of the length and width of the tumours. Results were calculated as a percentage inhibition of tumour volume relative to untreated controls.

[5] = tested on: another carcinoma which does not express EGF receptor tyrosine kinase; conditions: Toi et al., 1990; cited from earlier work
[6] = values stated as approximate, EGF receptor tyrosine kinase from A-431 cells

T1 sequence (P00533 25-1210): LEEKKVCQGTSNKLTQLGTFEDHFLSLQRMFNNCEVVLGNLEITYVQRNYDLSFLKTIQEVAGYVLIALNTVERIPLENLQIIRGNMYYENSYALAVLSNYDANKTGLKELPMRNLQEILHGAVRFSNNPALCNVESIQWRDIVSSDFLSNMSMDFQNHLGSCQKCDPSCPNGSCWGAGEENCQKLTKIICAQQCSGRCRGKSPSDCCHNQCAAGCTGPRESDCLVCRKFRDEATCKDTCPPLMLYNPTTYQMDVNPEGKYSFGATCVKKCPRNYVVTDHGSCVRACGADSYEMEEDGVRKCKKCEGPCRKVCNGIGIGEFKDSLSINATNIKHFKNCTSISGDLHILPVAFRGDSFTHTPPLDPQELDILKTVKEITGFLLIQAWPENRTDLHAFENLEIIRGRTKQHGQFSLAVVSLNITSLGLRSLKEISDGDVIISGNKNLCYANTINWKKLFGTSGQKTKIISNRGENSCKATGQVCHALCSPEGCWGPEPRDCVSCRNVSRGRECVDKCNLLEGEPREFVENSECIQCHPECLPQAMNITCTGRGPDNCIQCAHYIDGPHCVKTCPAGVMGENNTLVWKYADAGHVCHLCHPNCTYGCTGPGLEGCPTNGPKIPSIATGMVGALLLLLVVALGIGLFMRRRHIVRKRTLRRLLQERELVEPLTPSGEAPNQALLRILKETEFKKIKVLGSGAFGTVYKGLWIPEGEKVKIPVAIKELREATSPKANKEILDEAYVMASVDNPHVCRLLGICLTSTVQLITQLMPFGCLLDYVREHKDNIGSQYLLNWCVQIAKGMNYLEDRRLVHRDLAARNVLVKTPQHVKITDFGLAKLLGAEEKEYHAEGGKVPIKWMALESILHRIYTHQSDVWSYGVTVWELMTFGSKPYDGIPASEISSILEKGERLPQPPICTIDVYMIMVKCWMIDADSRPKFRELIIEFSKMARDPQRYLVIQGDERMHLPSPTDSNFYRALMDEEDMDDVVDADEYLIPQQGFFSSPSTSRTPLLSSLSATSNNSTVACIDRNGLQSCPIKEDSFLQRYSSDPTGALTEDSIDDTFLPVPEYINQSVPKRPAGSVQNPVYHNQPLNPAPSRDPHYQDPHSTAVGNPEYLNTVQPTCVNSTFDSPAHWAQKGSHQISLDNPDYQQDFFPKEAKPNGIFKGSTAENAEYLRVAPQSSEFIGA

Compound	IC50 [1, 6]	IC50 [2]	also measured
COc1cc2ncnc(Nc3ccc(F)c(Cl)c3)c2cc1OCCN(C)C [Example 6, 4-(3'-chloro-4'-fluoroanilino)-6-(2-dimethylaminoethoxy)-7-methoxyquinazoline]	10 nM	100 nM	–
COCCN(CCOC)CCOc1cc2c(Nc3ccc(F)c(Cl)c3)ncnc2cc1OC [Example 5, 4-(3'-chloro-4'-fluoroanilino)-7-methoxy-6-{2-[di-(2-methoxyethyl)amino]ethoxy}quinazoline]	60 nM	200 nM	–
CCN(CC)CCOc1cc2c(Nc3ccc(F)c(Cl)c3)ncnc2cc1OC [Example 7, 4-(3'-chloro-4'-fluoroanilino)-6-(2-diethylaminoethoxy)-7-methoxyquinazoline]	90 nM	300 nM	–
CCN(CC)CCCOc1cc2c(Nc3ccc(F)c(F)c3)ncnc2cc1OC [Example 20, 6-(3-diethylaminopropoxy)-4-(3',4'-difluoroanilino)-7-methoxyquinazoline]	670 nM	550 nM	–
COc1cc2ncnc(Nc3ccc(F)c(F)c3)c2cc1OCCCN1CCOCC1 [Example 19, 4-(3',4'-difluoroanilino)-7-methoxy-6-(3-morpholinopropoxy)quinazoline]	520 nM	450 nM	–
COc1cc2ncnc(Nc3ccc(F)cc3F)c2cc1OCCCN1CCOCC1 [Example 14, 4-(2',4'-difluoroanilino)-7-methoxy-6-(3-morpholinopropoxy)quinazoline]	670 nM	300 nM	–
COc1cc2ncnc(Nc3cccc(Br)c3)c2cc1OC [4-(3'-bromoanilino)-6,7-dimethoxyquinazoline]	–	–	inhibition of EGF receptor tyrosine kinase [3]: highly potent inhibitor of EGF receptor tyrosine kinase
COc1cc2ncnc(Nc3ccc(F)c(F)c3)c2cc1OCCCN(C)C [Example 18, 4-(3',4'-difluoroanilino)-6-(3-dimethylaminopropoxy)-7-methoxyquinazoline]	270 nM	390 nM	–
COc1cc2ncnc(Nc3ccc(F)cc3F)c2cc1OCCCN(C)C [Example 8, 4-(2',4'-difluoroanilino)-6-(3-dimethylaminopropoxy)-7-methoxyquinazoline]	480 nM	900 nM	–
COc1cc2ncnc(Nc3ccc(F)c(Cl)c3)c2cc1OCCN1CCN(C)CC1 [Example 4, 4-(3'-chloro-4'-fluoroanilino)-7-methoxy-6-[2-(4-methylpiperazin-1-yl)ethoxy]quinazoline]	–	100 nM	IC50 [1]: 10 nM
COc1cc2ncnc(Nc3ccc(F)c(Cl)c3)c2cc1OCCCN1CCOCC1 [Example 1, 4-(3'-chloro-4'-fluoroanilino)-7-methoxy-6-(3-morpholinopropoxy)quinazoline]	–	–	ED50 [4]: ~12.5 mg/kg
COc1cc2ncnc(Nc3ccc(F)c(Cl)c3)c2cc1OCC(O)CN1CCOCC1 (stereo not shown) [Example 9, 4-(3'-chloro-4'-fluoroanilino)-6-(2-hydroxy-3-morpholinopropoxy)-7-methoxyquinazoline]	10 nM	100 nM	–
O=CN/C=C/c1cc(O)ccc1O [erbstatin]	–	–	growth of another carcinoma not expressing EGF receptor tyrosine kinase [5]: without effect on the growth
COc1cc2ncnc(Nc3ccc(F)c(Cl)c3)c2cc1OCCN1CCOCC1 [Example 3, 4-(3'-chloro-4'-fluoroanilino)-7-methoxy-6-(2-morpholinoethoxy)quinazoline]	10 nM	400 nM	–
